The source of these data is patent publication US20240425524A1, “SPIROTRICYCLE RIPK1 INHIBITORS AND METHODS OF USES THEREOF” (Merck Sharp & Dohme LLC, priority 2021, published 2024).

RIPK1, sequence (Q13546 1-327): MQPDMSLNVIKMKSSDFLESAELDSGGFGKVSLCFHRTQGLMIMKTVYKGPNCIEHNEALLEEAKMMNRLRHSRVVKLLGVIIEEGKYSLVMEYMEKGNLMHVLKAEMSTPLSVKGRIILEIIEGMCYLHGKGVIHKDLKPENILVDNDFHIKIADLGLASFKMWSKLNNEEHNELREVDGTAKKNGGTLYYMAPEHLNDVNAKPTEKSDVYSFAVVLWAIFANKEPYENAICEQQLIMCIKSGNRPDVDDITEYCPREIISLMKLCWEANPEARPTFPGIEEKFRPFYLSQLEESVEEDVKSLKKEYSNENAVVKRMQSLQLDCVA

This assay deals with RIPK1 (Homo sapiens (Human), UniProt Q13546). The assay is described as follows: RIPK1-ADP-Glo Enzymatic Assay. Particulars: recombinant GST-RIPK1 kinase domain (residues 1-327), 25 nM, ten-point titration, 30 minutes pre-incubation. It counts as biochemical. As to the method:
The enzymatic activity of RIPK1 was measured using an assay derived from ADP-Glo kit (™Promega), which provides a luminescent-based ADP detection system. Specifically, the ADP generated by RIPK1 kinase was proportionally detected as luminescent signals in a homogenous fashion. In this context, the assessment of the inhibitory effect of small molecules (EC50) was measured by the effectiveness of the compounds to inhibit the ATP to ADP conversion by RIPK1.
In this assay, the potency (EC50) of each compound was determined from a ten-point (1:3 serial dilution: top compound concentration of 100000 nM) titration curve using the following outlined procedure. To each well of a white ProxiPlus 384 well-plate, 30 nL of compound (1% DMSO in final assay volume of 3 μL) was dispensed, followed by the addition of 2 μL of 1x assay buffer (25 mM Hepes 7.3, 20 mM MgCl2, 50 mM NaCl, 1 mM DTT, 0.005% Tween20, and 0.02% BSA) containing 37.5 nM of GST-RIPK1 (recombinant GST-RIPK1 kinase domain (residues 1-327) enzyme produced from baculovirus-transfected Sf21 cells: MW=62 kDa). Plates were placed in an ambient temperature humidified chamber for a 30 minutes pre-incubation with compound. Subsequently, each reaction was initiated by the addition of 1 μL 1× assay buffer containing […] dephosphorylated-MBP substrate. The final reaction in each well of 3 μL consists of 25 nM of GST-RIPK1, 300 µM ATP, and 3 μM dephosphorylated-MBP. Kinase reactions were allowed to proceed for 150 minutes prior to adding ADP-Glo reagents per Promega's outlined kit protocol. Dose-response curves were generated by plotting percent effect (% product conversion: Y-axis) vs. Logio compound concentrations (X-axis). EC50 values were calculated using a non-linear regression, four-parameters sigmoidal dose-response model and are provided for example compounds of the invention (labeled “RIPK1 EC50 (nM)” throughout the above examples).
With `O=C1N2[C@H](c3cc(F)cc(F)c3)CCN2CC12CCN(c1cc(O)ncn1)CC2` [Example 1.2, (7′S)-7′-(3,5-difluorophenyl)-1-(6-hydroxypyrimidin-4-yl)dihydro-1′H,3′H,5′H-spiro[piperidine-4,2′-pyrazolo[1,2-a]pyrazol]-1′-one], the EC50 amounted to 151 nM.

Take `O=C1N2[C@H](c3cc(F)cc(F)c3)CCN2CC12CCN(c1cc(F)ccn1)CC2` [Example 1.3, (7′S)-7′-(3,5-difluorophenyl)-1-(4-fluoropyridin-2-yl)dihydro-1′H,3′H,5′H-spiro[piperidine-4,2′-pyrazolo[1,2-a]pyrazol]-1′-one]: the EC50 is 19 nM.

For `O=C1N2[C@H](c3cc(F)cc(F)c3)CCN2CC12CCN(c1cccc(CO)n1)CC2` [Example 1.4, (7′S)-7′-(3,5-difluorophenyl)-1-[6-(hydroxymethyl)pyridin-2-yl]dihydro-1′H,3′H,5′H-spiro [piperidine-4,2′-pyrazolo[1,2-a]pyrazol]-1′-one], the EC50 was 629 nM.

With `O=C1N2[C@H](c3cc(F)cc(F)c3)CCN2CC12CCN(c1cccc(Cl)n1)CC2` [Example 1.5, (7′S)-1-(6-chloropyridin-2-yl)-7′-(3,5-difluorophenyl)dihydro-1′H,3′H,5′H-spiro[piperidine-4,2′-pyrazolo[1,2-a]pyrazol]-1′-one], the EC50 was 24 nM.

In the case of `Cc1cnc(N2CCC3(CC2)CN2CC[C@@H](c4cc(F)cc(F)c4)N2C3=O)nc1` [Example 1.6, (7′S)-7′-(3,5-difluorophenyl)-1-(5-methylpyrimidin-2-yl)dihydro-1′H,3′H,5′H-spiro[piperidine-4,2′-pyrazolo[1,2-a]pyrazol]-1′-one], the EC50 amounted to 393 nM.

Regarding `O=C1N2[C@H](c3cc(F)cc(F)c3)CCN2CC12CCN(c1cc(C(F)F)ncn1)CC2` [Example 1.7, (7′S)-1-[6-(difluoromethyl)pyrimidin-4-yl]-7′-(3,5-difluorophenyl)dihydro-1′H,3′H,5′H-spiro [piperidine-4,2′-pyrazolo[1,2-a]pyrazol]-1′-one], the EC50 was 39 nM.

Take `O=C1N2[C@H](c3cc(F)cc(F)c3)CCN2CC12CCN(c1ccnc(C(F)F)n1)CC2` [Example 1.8, (7′S)-1-[2-(difluoromethyl)pyrimidin-4-yl]-7′-(3,5-difluorophenyl)dihydro-1′H,3′H,5′H-spiro[piperidine-4,2′-pyrazolo[1,2-a]pyrazol]-1′-one]: the EC50 came out at 16 nM.

In the case of `O=C1N2[C@H](c3cc(F)cc(F)c3)CCN2CC12CCN(c1cc(F)ncc1F)CC2` [Example 1.9, (7′S)-7′-(3,5-difluorophenyl)-1-(2,5-difluoropyridin-4-yl)dihydro-1′H,3′H,5′H-spiro[piperidine-4,2′-pyrazolo[1,2-a]pyrazol]-1′-one], the EC50 was 37 nM.

`O=C1N2[C@H](c3cc(F)cc(F)c3)CCN2CC12CCN(c1cc(Cl)ccn1)CC2` [Example 1.11, (7′S)-1-(4-chloropyridin-2-yl)-7′-(3,5-difluorophenyl)dihydro-1′H,3′H,5′H-spiro[piperidine-4,2′-pyrazolo[1,2-a]pyrazol]-1′-one]: the EC50 came to 28 nM.

On to `O=C1N2[C@H](c3cc(F)cc(F)c3)CCN2CC12CCN(c1cccc(F)n1)CC2` [Example 1.12, (7′S)-7′-(3,5-difluorophenyl)-1-(6-fluoropyridin-2-yl)dihydro-1′H,3′H,5′H-spiro[piperidine-4,2′-pyrazolo[1,2-a]pyrazol]-1′-one], for which the EC50 worked out at 29 nM.

Take `O=C1N2[C@H](c3cc(F)cc(F)c3)CCN2CC12CCN(c1ncnc3ccsc13)CC2` [Example 1.13, (S)-7′-(3,5-difluorophenyl)-1-(thieno[3,2-d]pyrimidin-4-yl)dihydro-1′H,3′H,5′H-spiro[piperidine-4,2′-pyrazolo[1,2-a]pyrazol]-1′-one]: the EC50 was determined as 16 nM.

As to `CSc1cc(N2CCC3(CC2)CN2CC[C@@H](c4cc(F)cc(F)c4)N2C3=O)ncn1` [Example 1.14, (S)-7′-(3,5-difluorophenyl)-1-(6-(methylthio)pyrimidin-4-yl)dihydro-1′H,3′H,5′H-spiro[piperidine-4,2′-pyrazolo[1,2-a]pyrazol]-1′-one], the concentration giving a half-maximal response (EC50) turned out to be 17 nM.

`Cc1cc(N2CCC3(CC2)CN2CC[C@@H](c4cc(F)cc(F)c4)N2C3=O)nc(C#N)n1` [Example 1.16, (S)-4-(7′-(3,5-difluorophenyl)-1′-oxodihydro-1′H,3′H,5′H-spiro[piperidine-4,2′-pyrazolo[1,2-a]pyrazol]-1-yl)-6-methylpyrimidine-2-carbonitrile]: the EC50 came to 67 nM.

Consider `O=C1N2[C@H](c3cc(F)cc(F)c3)CCN2CC12CCN(c1cc(-n3cccn3)ncn1)CC2` [Example 1.17, (S)-1-(6-(1H-pyrazol-1-yl)pyrimidin-4-yl)-7′-(3,5-difluorophenyl)dihydro-1′H,3′H,5′H-spiro[piperidine-4,2′-pyrazolo[1,2-a]pyrazol]-1′-one], for which the EC50 worked out at 20 nM.

In the case of `O=C1N2[C@H](c3cc(F)cc(F)c3)CCN2CC12CCN(c1cc(-n3ccnc3)ncn1)CC2` [Example 1.18, (S)-1-(6-(1H-imidazol-1-yl)pyrimidin-4-yl)-7′-(3,5-difluorophenyl)dihydro-1′H,3′H,5′H-spiro[piperidine-4,2′-pyrazolo[1,2-a]pyrazol]-1′-one], the EC50 was 27 nM.

For the molecule `Cc1cn(-c2cc(N3CCC4(CC3)CN3CC[C@@H](c5cc(F)cc(F)c5)N3C4=O)ncn2)cn1` [Example 1.19, (S)-7′-(3,5-difluorophenyl)-1-(6-(4-methyl-1H-imidazol-1-yl)pyrimidin-4-yl)dihydro-1′H,3′H,5′H-spiro [piperidine-4,2′-pyrazolo[1,2-a]pyrazol]-1′-one], the EC50 worked out at 37 nM.

In the case of `CCc1nccc(N2CCC3(CC2)CN2CC[C@@H](c4cc(F)cc(F)c4)N2C3=O)n1` [Example 1.20, (S)-7′-(3,5-difluorophenyl)-1-(2-ethylpyrimidin-4-yl)dihydro-1′H,3′H,5′H-spiro[piperidine-4,2′-pyrazolo[1,2-a]pyrazol]-1′-one], the EC50 came to 159 nM.

Turning to `Cn1nccc1-c1cc(N2CCC3(CC2)CN2CC[C@@H](c4cc(F)cc(F)c4)N2C3=O)ncn1` [Example 1.21, (S)-7′-(3,5-difluorophenyl)-1-(6-(1-methyl-1H-pyrazol-5-yl)pyrimidin-4-yl)dihydro-1′H,3′H,5′H-spiro[piperidine-4,2′-pyrazolo[1,2-a]pyrazol]-l′-one], the EC50 turned out to be 15 nM.

As for `CSc1cnc(N2CCC3(CC2)CN2CC[C@@H](c4cc(F)cc(F)c4)N2C3=O)nc1` [Example 1.22, (S)-7′-(3,5-difluorophenyl)-1-(5-(methylthio)pyrimidin-2-yl)dihydro-1′H,3′H,5′H-spiro [piperidine-4,2′-pyrazolo[1,2-a]pyrazol]-1′-one], the EC50 was 89 nM.

Turning to `COc1nc(N2CCC3(CC2)CN2CC[C@@H](c4cc(F)cc(F)c4)N2C3=O)ncc1C` [Example 1.23, (S)-7′-(3,5-difluorophenyl)-1-(4-methoxy-5-methylpyrimidin-2-yl)dihydro-1′H,3′H,5′H-spiro[piperidine-4,2′-pyrazolo[1,2-a]pyrazol]-1′-one], the EC50 came out at 68 nM.

For `NC(=O)c1ccnc(N2CCC3(CC2)CN2CC[C@@H](c4cc(F)cc(F)c4)N2C3=O)n1` [Example 1.24, (S)-2-(7′-(3,5-difluorophenyl)-1′-oxodihydro-1′H,3′H,5′H-spiro[piperidine-4,2′-pyrazolo[1,2-a]pyrazol]-1-yl)pyrimidine-4-carboxamide], the EC50 amounted to 136 nM.
